Assay results as given in ChEMBL document CHEMBL5726641, “Inhibitors of lysine methyl transferase” (2017).

Biological target: Histone-lysine N-methyltransferase EZH2 (Homo sapiens, UniProt Q15910, Y641F)
Test: Biological Assay: EZH2 Histone Methyl Transferase Assay: The effectiveness of compounds of the present invention as inhibitors of histone methyl transferases can be readily tested by assays known to those skilled in the art. For example, in vitro histone methyl transferase assays may be conducted with a relevant purified histone methyl transferase and an appropriate synthetic substrate to determine the inhibitory activity of the compounds. Assays for inhibition of EZH2 by the instant compounds were performed in 384-well plates with reaction mixtures containing 350 nM of histone peptide substrate (ATKAAR-K(Me2)-SAPATGGVKKPHRYRPG-GK(Biotin), 500 nM S-[methyl-3H]adenosyl-L-methionine (55-85 Ci/mmol), 50 mM Tris-HCl (pH 9.0), 50 mM NaCl, 1 mM dithiothreitol, Tween-20 at 0.01% and fatty-acid free bovine serum albumin at 0.01%, and recombinant EZH2-641F complex (EZH2 Y641F/EED/SUZ12/RbAp48/AEBP2) at 5 nM (>98% purity, BPS Bioscience) or 15 nM (50% purity, in-house). Reaction mixtures were incubated at room temperature for 3 hours, and the reactions were terminated by 0.005% poly-L-lysine solution in 20 mM Tris-HCl (pH 7.5) and 150 mM NaCl. Reaction products were captured by binding to strepavidin-conjugated imaging beads. Incorporation of radioactive methyl group into the histone peptide substrate was determined in Leadseeker (GE Healthcare) by means of scintillation proximity assay.

Histone-lysine N-methyltransferase EZH2, sequence (Q15910 whole entry Y641F): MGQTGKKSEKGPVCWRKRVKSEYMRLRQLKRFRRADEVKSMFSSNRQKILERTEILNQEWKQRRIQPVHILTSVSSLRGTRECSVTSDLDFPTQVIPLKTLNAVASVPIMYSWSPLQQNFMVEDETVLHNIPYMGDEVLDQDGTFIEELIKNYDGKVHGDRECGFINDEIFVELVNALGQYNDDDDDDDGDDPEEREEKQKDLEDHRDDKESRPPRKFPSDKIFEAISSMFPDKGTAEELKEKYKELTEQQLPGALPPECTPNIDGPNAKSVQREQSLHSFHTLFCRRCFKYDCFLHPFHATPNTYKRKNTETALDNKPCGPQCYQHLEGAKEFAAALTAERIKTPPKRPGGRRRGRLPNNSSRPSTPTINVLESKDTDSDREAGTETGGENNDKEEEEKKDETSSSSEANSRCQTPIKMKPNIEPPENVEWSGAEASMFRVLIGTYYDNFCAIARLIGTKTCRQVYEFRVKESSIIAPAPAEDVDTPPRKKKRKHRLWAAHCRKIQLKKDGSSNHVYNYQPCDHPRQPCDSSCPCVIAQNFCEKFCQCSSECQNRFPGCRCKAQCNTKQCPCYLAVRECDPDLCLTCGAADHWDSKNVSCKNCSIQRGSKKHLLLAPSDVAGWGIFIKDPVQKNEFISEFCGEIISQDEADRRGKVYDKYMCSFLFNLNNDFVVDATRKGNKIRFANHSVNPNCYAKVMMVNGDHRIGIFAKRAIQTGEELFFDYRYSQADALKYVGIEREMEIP

SMILES: COc1ccc(-c2cc(C(=O)NCc3c(C)cc(C)[nH]c3=O)cc3c2OCC3(C)C)cn1
- IC50: > 1000 nM

SMILES: C=C(C)C1(C)Cc2cc(C(=O)NCc3c(CCC)cc(C)[nH]c3=O)cc(-c3ccc(N4CCNCC4)nc3)c2O1 (centres undefined)
- IC50: < 500 nM

SMILES: C=C(C)C1(C)Cc2cc(C(=O)NCc3c(CCC)cc(C)[nH]c3=O)cc(-c3cnc(N4CCNCC4)nc3)c2O1 (centres undefined)
- IC50: < 500 nM

SMILES: Cc1cc(C)c(CNC(=O)c2cc(Br)c3c(c2)OC/C=C\CO3)c(=O)[nH]1
- IC50: > 1000 nM

SMILES: C=C(C)C1(C)Cc2cc(C(=O)NCc3c(C)cc(C)[nH]c3=O)cc(-c3ccc(N4CCNCC4)nc3)c2O1 (centres undefined)
- IC50: < 500 nM

SMILES: CCC1COc2cc(C(=O)NCc3c(C)cc(C)[nH]c3=O)cc(-c3ccc(N4CCNCC4)nc3)c2O1 (centres undefined)
- IC50: > 1000 nM

SMILES: Cc1cc(C)c(CNC(=O)c2cc3c(c(C(F)(F)F)c2)OC(C)(C)C3)c(=O)[nH]1
- IC50: > 1000 nM

SMILES: COc1ccc(-c2cc(C(=O)NCc3c(C)cc(C)[nH]c3=O)cc3c2OC(C)(C(C)C)C3)cn1 (centres undefined)
- IC50: > 1000 nM

SMILES: CCCc1cc(C)[nH]c(=O)c1CNC(=O)c1cc2c(c(-c3ccc(N4CCNCC4)nc3)c1)OC(C)(C(C)C)C2 (centres undefined)
- IC50: < 500 nM
